Results on 17 compounds are retold here after patent publication EP0728738A1, “Tetralinyl- and indanyl-ethylamides having melatonergic activity” (BRISTOL-MYERS SQUIBB COMPANY, priority 1995, dated 1996).

In assay [1] the target is ML1 Receptor. Nature of the assay: Melatonergic binding at the ML1 receptor in rabbit tissue (2-[125I]-iodomelatonin displacement, parietal cortex homogenate). The following applies: 2-[125I]-iodomelatonin 44pM, 37°C for 1 hour, read-out: Binding Affinity IC50. Here is the method: Example 46: Measurement of Melatonergic Binding at the ML1 Receptor in Rabbit Tissue
• 1. Reagents • (a) 50mM Tris buffer containing 12.5 mM MgCl2, and 2mM EDTA (pH 7.4 at 37 °C). • (b) Wash buffer: 20mM Tris base containing 2mM MgCl2 (pH 7.4 at room temperature). • (c) 6-Chloromelatonin (10-^5M final concentration). • (d) 2-[^125I]-iodomelatoin, 44pM final concentration Source: NEN • 2. Tissue preparation. Male New Zealand white rabbits (Hazelton Research) are decapitated, the brains are rapidly removed and chilled. The parietal cortex is crudely dissected and frozen on dry ice with tissue stored at - 80 °C until assayed. Tissue is weighed and thawed in 20 mls ice cold Tris buffer (a) and homogenized by treatment with a polytron for 10 seconds at setting 17. Ice cold Tris (a) is added to a volume of 40 mls. The homogenate is centrifuged. The resulting supernatant is decanted and discarded. The pellet is rehomogenized in an additional 20 mls of Tris, diluted and centrifuged. The supernatant is decanted and discarded. The resulting pellet is homogenized in 20 volumes of Tris per gram of original tissue (a 1:20 homogenate), chilled, and held on ice until assayed. • 3. Incubation: 37 °C for 1 hour. Reaction is terminated by filtration. • 4. […] References: Stankov, B., Cozzi, B., Lucini, V., Fumagalli, P., Scaglione, F. and F. Fraschini. Characterization and mapping of melatonin receptors in the brain of three mammalian species: Rabbit, horse, and sheep. Neuroendocrinology 53: 214-221, 1991.

Assay [2] concerns the target T1, Human Melatonin Receptor ML1A (Homo sapiens, UniProt P48039).
T1 construct: expressed in transfected cells; host or cells: COS-1 cells, pcDNAI vector, DEAE-dextran transfection
Nature of the assay: Melatonergic binding at the human melatonin receptor ML1A (2-[125I]-iodomelatonin displacement, membranes of transfected COS-1 cells). The settings on record: human ML1A in COS-1 cell membranes, 2-[125I]-iodomelatonin 100 pM, 37°C for 1 hour; read-out: Binding Affinity IC50. Here is the method: Example 47: Measurement of Melatonergic Binding at the Human Melatonin Receptor ML1A
• 1. Reagents: • (a) 50mM Tris buffer containing 12.5 mM MgCl2, and 2mM EDTA, pH 7.4 at 37 °C with concentrated HCl. • (b) Wash buffer: 20mM Tris base containing 2mM MgCl2. pH 7.4 at room temperature. • (c) 10^-4M 6-Chloromelatonin (10-^5M final concentration). • (d) 2-[^125I]-iodomelatonin, 100 pM final concentration Source: NEN • 2. Membrane preparation: The cDNA (human ML1A) in pcDNAI was introduced into COS-1 cells by the DEAE-dextran method. Three days after transfection, the media was removed, the plates washed with phosphate buffered saline, the cells removed using Hank's balanced salt solution and pelleted. For preparing membrane homogenates, pellets are thawed on ice, and resuspended in TME buffer, 50 mM Tris base, 12.5 mM MgCl2, 1 mM EDTA (pH7.4 at 37°C with concentrated HCL), supplemented with 10 µg/ml aprotinin and leupeptin, and 100 µM phenylmethlysulfonylfluoride. The cells were then homogenized using a dounce homogenizer, and centrifuged. The resulting pellet was resuspended with a dounce homogenizer in TME and frozen. On the day of assay, the small aliquot was thawed on ice and resuspended in TME buffer. • 3. Incubation: 37 °C for 1 hour. Reaction is terminated by filtration. • 4. […] Reference: Reppert, S. M., Weaver, D. R., and Ebisawa, R. (1994), Neuron, 13, 1177-1185.

T1 sequence (P48039 whole entry): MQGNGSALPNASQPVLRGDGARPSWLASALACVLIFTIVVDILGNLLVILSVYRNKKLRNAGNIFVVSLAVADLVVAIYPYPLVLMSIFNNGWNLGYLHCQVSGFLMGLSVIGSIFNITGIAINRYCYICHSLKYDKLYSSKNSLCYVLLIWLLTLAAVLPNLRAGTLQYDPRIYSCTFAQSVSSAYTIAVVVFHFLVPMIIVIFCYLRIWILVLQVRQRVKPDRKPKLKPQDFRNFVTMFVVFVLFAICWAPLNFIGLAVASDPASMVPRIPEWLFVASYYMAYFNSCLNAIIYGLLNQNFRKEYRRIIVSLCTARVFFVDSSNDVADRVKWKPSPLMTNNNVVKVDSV

`COc1ccc2c(c1)C(CCNC(C)=O)CCC2` (centres unmarked) [Example 4, N-[2-(7-Methoxy-1,2,3,4-tetrahydro-1-naphthalenyl)ethyl]acetamide]: the IC50 in assay [1] was below 100 nM.
Same read-out and setting: under `CCCC(=O)NCCC1CCCc2ccc(OC)cc21` (centres unmarked) [Example 1, N-[2-(7-Methoxy-1,2,3,4-tetrahydro-1-naphthalenyl)ethyl]butanamide] stands below 100 nM; under `COc1ccc2c(c1)C(CCNC(C)=O)CC2(C)C` (centres unmarked) [Example 32, N-[2-(2,3-Dihydro-6-methoxy-3,3-dimethyl-1H-inden-1-yl)ethyl]acetamide], 100 to 500 nM.
As to `CCCC(=O)NCCC1CCc2ccc(OC)cc21` (single isomer, unassigned; (-)) [Example 36], the IC50 in assay [2] and in assay [1] was below 100 nM each time.
Consider `CCCC(=O)NCCC1CCc2ccc(F)cc21` (centres unmarked) [Example 31, N-[2-(6-Fluoro-2,3-dihydro-1H-inden-1-yl)ethyl]butanamide], for which, in assay [1], the IC50 was below 100 nM.
Regarding `COCC(=O)NCCC1CCCc2ccc(OC)cc21` (centres unmarked) [Example 16, N-[2-(7-Methoxy-1,2,3,4-tetrahydro-1-naphthalenyl)ethyl]-2-methoxyacetamide], the IC50 in assay [1] was below 100 nM.
With `CCCC(=O)NCCC1CCc2ccc(OC)cc21` (single isomer, unassigned; (+)) [Example 37], in assay [2], the IC50 fell in the range of 100 to 500 nM.
Regarding `CCCC(=O)NCCC1CC(C)(C)c2ccc(OC)cc21` (centres unmarked) [Example 33, N-[2-(2,3-Dihydro-6-methoxy-3,3-dimethyl-1H-inden-1-yl)ethyl]butanamide], the IC50 in assay [1] lay within 100 to 500 nM.
On the same count and under the same terms, under `COc1ccc2c(c1)C(CCNC(=O)C1CC1)CCC2` (centres unmarked) [Example 3, N-[2-(7-Methoxy-1,2,3,4-tetrahydro-1-naphthalenyl)ethyl]cyclopropane carboxamide] stands below 100 nM; under `COc1ccc2c(c1)C(CCNC(C)=O)CC2` (centres unmarked) [Example 25, N-[2-(2,3-Dihydro-6-methoxy-1H-inden-1-yl)-ethyl]acetamide], below 100 nM; under `CCCC(=O)NCCC1CCc2ccc(OC)cc21` (centres unmarked) [Example 22, N-[2-(2,3-Dihydro-6-methoxy-1H-inden-1-yl)-ethyl]butanamide], below 100 nM.
For the compound `CCCC(=O)NCCC1CCc2ccc(C(=O)OC)cc21` (centres unmarked) [Example 42, N-[2-(2,3-Dihydro-6-methoxycarbonyl-1H-inden-1-yl)ethyl]butanamide], the IC50 in assay [1] is below 100 nM.
Turning to `COCC(=O)NCCC1CCCc2ccc(OC)cc21` (single isomer, unassigned; (-)) [Example 38, (-)-N-[2-(1,2,3,4-tetrahydro-7-methoxynaphthalen-1-yl)ethyl] methoxyacetamide], the IC50 in assay [2] and in assay [1] was below 100 nM throughout.
As for `CCCCCCCCCCCCOc1ccc2c(c1)C(CCNC(=O)CCC)CC2` (centres unmarked) [Example 43, N-[2-(2,3-Dihydro-6-dodecyloxy-1H-inden-1-yl)ethyl]butanamide], in assay [2], the IC50 was below 100 nM.
As for `COc1ccc2c(c1)C(CCNC(=O)C1CC1)CC2` (centres unmarked) [Example 24, N-[2-(2,3-Dihydro-6-methoxy-1H-inden-1-yl)-ethyl]cyclopropane carboxamide], the IC50 in assay [1] is below 100 nM.
Turning to `CCCC(=O)NCCC1CCc2ccc(OC(F)F)cc21` (centres unmarked) [Example 45, N-[2-(6-Difluoromethoxy-2,3-dihydro-1H-inden-1-yl)ethyl]butanamide], the IC50 in assay [2] is below 100 nM.
Take `COCC(=O)NCCC1CCCc2ccc(OC)cc21` (single isomer, unassigned; (+)) [Example 39, (+)-N-[2-(1,2,3,4-tetrahydro-7-methoxynaphthalen-1-yl)ethyl] methoxyacetamide]: the IC50 in assay [2] was at least 500 nM; in assay [1], below 100 nM.

In general, IC50 refers to the midpoint of a concentration-inhibition curve.
